This is an account of results in patent US20250268260A1, “PESTICIDAL COMPOSITIONS INCLUDING AN ISOXAZOLINE COMPOUND” (SYNGENTA CROP PROTECTION AG, priority 2022, published 2025).

What all share (format): in vivo
The subject of one series is Spodoptera littoralis. Kind of series: Foliar spray on soybean plants, Spodoptera littoralis larvae mortality (Example 1). As to conditions: isocycloseram 0.4 ppm (0.2 g AI/ha), Bt1 45 ppm (22.5 g AI/ha), alone or combined, second instar larvae; for % mortality (3DAA) Observed Results: 3 days after application; for % mortality (5DAA) Observed Results: 5 days after application. The procedure: The products VIRANTRA SC400 and COSTAR WG 18 are diluted with the addition of water to obtain the concentrations of active ingredients gathered in Table 1 and Table 2, and were applied on soybean plants (planted in pots; ˜8 plants per pot, 5 pots per treatment), in using a turn table application machine (500 l/ha). After drying 10 soybean plants were cut and placed in a petri dish (diameter: 14.5 cm) containing 3 wet filter papers (4 ml water); 3 replicates per concentration were done. Plants were infested with 10 Spodoptera littoralis larvae (second instar of larvae) and petri dish was covered with a round cotton tissue and closed with a plastic lid. Three and five days after application mortality was assessed.

The next series has as its system Diabrotica balteata. As to the kind of experiment: Corn seed treatment, Diabrotica balteata larvae mortality and plant damage (Example 2). As to conditions: 6 days after infestation, alone or combined. The protocol: The products FS400 and NOVODOR 3% FC were diluted with the addition of water to have the dose of active ingredient for 30 seeds plus an overage of 10%. These extra 10% were needed to compensate for losses of active ingredient during the seed treatment process. 30 seeds of corn were placed in a spheric glass beaker, and the application solution was added. The beaker was swung to mix the seeds with the solution. After drying, four seeds were sown per pot. 5 replicates per treatment were prepared. 14 days after sowing the pots were infested with 5 second instar larvae of Diabrotica balteata. 6 days after infestation (6DAI) the mortality of larvae and the damage on the plants was assessed.

Another series relates to Agriotes lineatus. As to the kind of experiment: Barley seed treatment, wireworm (Agriotes lineatus) corrected mortality and plant height (Example 3). As to conditions: for % Increase plant height in comparison to infested control (6DAI) observed / Plant height in cm: 6DAI; for Plant height in cm: barley, infested control 9.3, not infested control 14.9; for % Corrected mortality (20 DAI) observed: 20 days after infestation, barley seed treatment. The protocol: The products FS400 and NOVODOR 3% FC were diluted with the addition of water to have the dose of active ingredient for 30 seeds plusan overage of 10%. These extra 10% were needed to compensate for losses of active ingredient during the seed treatment process. 30 seeds of barley were placed in a spheric glass beaker, and the application solution was added. The beaker was swung to mix the seeds with the solution. After drying two seeds were sown per pot. 10 replicates per treatment were prepared. 5 days after sowing the pots were infested with 10 wireworms (Agriotes lineatus, approx. 20 mm length). 20 days after infestation (20DAI), the corrected mortality of the wireworms was assessed based on the control treatment. 6 days after infestation (6DAI) the plant height was measured.

The mark [1] stands for this setting: isocycloseram 0.01 mg/seed (3 g/100 kg seeds), Bt2 0.03 mg/seed (10 g/100 kg seeds).
The mark [2] stands for this setting: isocycloseram 0.03 mg/seed (10 g/100 kg seeds), Bt2 0.1 mg/seed (30 g/100 kg seeds).
[3] abbreviates: Bt2 alone 5 μg/seed (120 g/100 kg seed).
The mark [4] stands for this setting: isocycloseram 0.25 μg/seed (6 g/100 kg seed), alone or + Bt2 5 μg/seed.
Where [5] appears, read: isocycloseram 1.25 μg/seed (24 g/100 kg seed), alone or + Bt2 5 μg/seed.

On to “Bacillus thuringiensis var. kurstaki strain SA-12 [Bt1]”, for which, in the series on Spodoptera littoralis, the “% mortality (3DAA) Observed Results” value stood at 20% and the “% mortality (5DAA) Observed Results” value was 30%.
For the compound “Bacillus thuringiensis var. tenebrionis strain NB-176 [Bt2]”, in the series with Diabrotica balteata (setting [1]), the “% Mortality (6DAI) observed” value was determined as 0% and the “% Plant damage reduction (6DAI) observed” value was −6%. In the series with Diabrotica balteata (setting [2]), the “% Mortality (6DAI) observed” value was found to be 0% and the “% Plant damage reduction (6DAI) observed” value is reported as 11%. In addition, in the series with Agriotes lineatus (setting [3]), the “% Increase plant height in comparison to infested control (6DAI) observed” value (“% Increase plant height in comparison” below) came out at 0%, the “Plant height in cm” value is given as 9 cm and the “% Corrected mortality (20 DAI) observed” value is reported as 0%.
`CCN1OCC(NC(=O)c2ccc(C3=NOC(c4cc(Cl)c(F)c(Cl)c4)(C(F)(F)F)C3)cc2C)C1=O` (stereo not drawn) [isocycloseram]: in the series with Spodoptera littoralis, the “% mortality (3DAA) Observed Results” value came out at 0% and the “% mortality (5DAA) Observed Results” value was found to be 7%. In addition, in the series on Diabrotica balteata (setting [1]), the “% Mortality (6DAI) observed” value was 33% and the “% Plant damage reduction (6DAI) observed” value was found to be 33%. In the series with Diabrotica balteata (setting [2]), the “% Mortality (6DAI) observed” value came out at 58% and the “% Plant damage reduction (6DAI) observed” value is 50%. Also, in the series on Agriotes lineatus (setting [4]), the “Plant height in cm” value turned out to be 10.2 cm and the “% Increase plant height in comparison” value was determined as 10%. Further, in the series on Agriotes lineatus (setting [5]), the “Plant height in cm” value is recorded as 10.6 cm and the “% Increase plant height in comparison” value worked out at 14%. Also, the “% Corrected mortality (20 DAI) observed” value in the series on Agriotes lineatus (isocycloseram 0.25 μg/seed (6 g/100 kg seed), alone or + Bt2 5 μg/seed (120 g/100 kg seed)) was 17%. In addition, the “% Corrected mortality (20 DAI) observed” value in the series on Agriotes lineatus (isocycloseram 1.25 μg/seed (24 g/100 kg seed), alone or + Bt2 5 μg/seed (120 g/100 kg seed)) worked out at 25%.
